# Entries after “also recorded” stand apart in the source; their conditions may differ. Where two headings read alike, the source gives them in different places.
# Legend:
# [1] = type: in vivo, human; settings: 20 mg oral
# [2] = Adverse events and ECG; type: in vivo, human
# [3] = Adverse events, laboratory abnormalities and ECG; type: in vivo, human; settings: continual treatment phase, 45 mg
# [4] = test system: advanced solid tumors; assay: Tumor response by RECIST version 1.0; type: in vivo, human
# [5] = fasting state, two other phase 1 studies, CV 56%; cited from earlier work
# [6] = highly soluble, highly permeable class; cited from earlier work
# [7] = administered on days 1 and 4 of a weekly schedule; cited from earlier work
# [8] = high-fat breakfast vs fasting, P < 0.001; cited from earlier work
# [9] = 20 mg, all patients (n = 36), any grade
# [10] = 20 mg, high-fat breakfast (n = 36), any grade
# [11] = 20 mg, high-fat breakfast, any grade
# [12] = 20 mg, normal breakfast (n = 34), any grade
# [13] = 20 mg, normal breakfast, any grade
# [14] = 20 mg, overnight fast (n = 34), any grade
# [15] = food-effect phase, 20 mg, N = 36, Grade 3/4, regardless of study drug relationship
# [16] = food-effect phase, 20 mg, N = 36, any grade, regardless of study drug relationship
# [17] = food-effect phase, 20 mg, any grade
# [18] = N = 29, Grade 3/4, regardless of study drug relationship
# [19] = N = 29, any grade, regardless of study drug relationship
smiles,measurement,setting,value
"Cc1[nH]c2ccccc2c1CCNCc1ccc(/C=C/C(=O)NO)cc1 [panobinostat, Panobinostat]",effect of prandial state on mean elimination half-life,[1]; fasting vs high-fat vs normal breakfast,not altered; also recorded: unaltered
same,reduction of systemic exposure following food,[1]; food vs fasting,14–16%
same,interpatient variability of exposure (coefficient of variation),[1]; with or without food,59%
same,Cmax reduction,[1]; high-fat breakfast vs fasting,44%
same,"Tmax, median difference (range)",[1]; high-fat breakfast/fasting,2.48 (–2.00 to 7.02) h
same,AUC(0-inf),"[1]; human, plasma, po, 20 mg, AUC0–∞, mean (CV, %), fasting (n = 33)",176 ng·h/mL
same,Cmax,"[1]; human, plasma, po, 20 mg, Cmax, mean (CV, %), fasting (n = 33)",23 ng/mL
same,Tmax,"[1]; human, plasma, po, 20 mg, Tmax, median (range), fasting (n = 33)",1.5 h
same,half-life,"[1]; human, plasma, po, 20 mg, t1/2, mean (CV, %), fasting (n = 33)",14.5 h
same,Cmax reduction,[1]; normal breakfast vs fasting,36%
same,"Tmax, median difference (range)",[1]; normal breakfast/fasting,1.45 (–2.50 to 2.02) h
same,Panobinostat-related fatigue,[2]; [9],16 (44.4) n (%)
same,Panobinostat-related nausea,[2]; [9],11 (30.6) n (%)
same,Panobinostat-related vomiting,[2]; [9],7 (19.4) n (%)
same,"drug-related diarrhea, frequency","[2]; 20 mg, fasting, any grade",5.9%
same,"drug-related nausea, frequency","[2]; 20 mg, fasting, any grade",14.7%
same,"drug-related vomiting, frequency","[2]; 20 mg, fasting, any grade",14.7%
same,Panobinostat-related fatigue,[2]; [10],5 (13.9) n (%)
same,Panobinostat-related nausea,[2]; [10],3 (8.3) n (%)
same,Panobinostat-related vomiting,[2]; [10],1 (2.8) n (%)
same,"drug-related diarrhea, frequency",[2]; [11],0%
same,"drug-related fatigue, frequency",[2]; [11],13.9%
same,"drug-related nausea, frequency",[2]; [11],8.3%
same,"drug-related vomiting, frequency",[2]; [11],2.8%
same,Panobinostat-related fatigue,[2]; [12],10 (29.4) n (%)
same,Panobinostat-related nausea,[2]; [12],8 (23.5) n (%)
same,Panobinostat-related vomiting,[2]; [12],5 (14.7) n (%)
same,"drug-related diarrhea, frequency",[2]; [13],8.8%
same,"drug-related fatigue, frequency",[2]; [13],29.4%
same,"drug-related nausea, frequency",[2]; [13],23.5%
same,"drug-related vomiting, frequency",[2]; [13],14.7%
same,Panobinostat-related fatigue,[2]; [14],1 (2.9) n (%)
same,Panobinostat-related nausea,[2]; [14],5 (14.7) n (%)
same,Panobinostat-related vomiting,[2]; [14],5 (14.7) n (%)
same,"drug-related fatigue, frequency","[2]; 20 mg, overnight fast, any grade",2.9%
same,patients with SAEs,"[2]; food-effect phase, 20 mg",seven
same,reported grade 3 or 4 AEs,"[2]; food-effect phase, 20 mg",eight
same,QTcF >480 ms or >60 ms increase from baseline,"[2]; food-effect phase, 20 mg, 12-lead ECG",no QTcF >480 ms or >60 ms increase from baseline was observed
same,Abdominal pain,[2]; [15],0 (0) n (%)
same,Constipation,[2]; [15],0 (0) n (%)
same,Diarrhea,[2]; [15],1 (2.8) n (%)
same,Fatigue,[2]; [15],3 (8.3) n (%)
same,Headache,[2]; [15],0 (0) n (%)
same,Nausea,[2]; [15],2 (5.6) n (%)
same,Pyrexia,[2]; [15],0 (0) n (%)
same,Thrombocytopenia,[2]; [15],0 (0) n (%)
same,Total adverse events,[2]; [15],8 (22.2) n (%)
same,Vomiting,[2]; [15],2 (5.6) n (%)
same,Abdominal pain,[2]; [16],5 (13.9) n (%)
same,Constipation,[2]; [16],7 (19.4) n (%)
same,Diarrhea,[2]; [16],7 (19.4) n (%)
same,Fatigue,[2]; [16],18 (50.0) n (%)
same,Headache,[2]; [16],6 (16.7) n (%)
same,Nausea,[2]; [16],15 (41.7) n (%)
same,Pyrexia,[2]; [16],5 (13.9) n (%)
same,Thrombocytopenia,[2]; [16],5 (13.9) n (%)
same,Total adverse events,[2]; [16],34 (94.4) n (%)
same,Vomiting,[2]; [16],10 (27.8) n (%)
same,"Fatigue, frequency",[2]; [17],50%
same,"Nausea, frequency",[2]; [17],41.7%
same,"Thrombocytopenia, frequency",[2]; [17],13.9%
same,"Vomiting, frequency",[2]; [17],27.8%
same,study-drug related SAEs,"[2]; food-effect phase, 20 mg, grade 3 fatigue and grade 3 vomiting",two
same,patients discontinued due to adverse events,"[2]; food-effect phase, grade 3 fatigue and nausea/vomiting following a normal breakfast",one
same,"Fatigue, overall frequency",[3],48.3%
same,"Nausea, overall frequency",[3],37%
same,"Vomiting, overall frequency",[3],31.0%
same,frequency of grade 3 and 4 AEs,[3],65.5%
same,grade 3/4 biochemical abnormality: hypophosphatemia,[3],10.3%
same,grade 3/4 newly occurring or worsened hematologic laboratory abnormality: decreased platelet count,[3],44.8%
same,Abdominal pain,[3]; [18],1 (3.4) n (%)
same,Anemia,[3]; [18],1 (3.4) n (%)
same,Anorexia,[3]; [18],0 (0.0) n (%)
same,Constipation,[3]; [18],0 (0.0) n (%)
same,Decreased platelet count,[3]; [18],3 (10.3) n (%)
same,Diarrhea,[3]; [18],1 (3.4) n (%)
same,Dyspnea,[3]; [18],0 (0.0) n (%)
same,Fatigue,[3]; [18],5 (17.2) n (%)
same,Headache,[3]; [18],0 (0.0) n (%)
same,Nausea,[3]; [18],1 (3.4) n (%)
same,Pyrexia,[3]; [18],0 (0.0) n (%)
same,Thrombocytopenia,[3]; [18],11 (37.9) n (%)
same,Total adverse events,[3]; [18],19 (65.5) n (%)
same,Vomiting,[3]; [18],2 (6.9) n (%)
same,Abdominal pain,[3]; [19],6 (20.7) n (%)
same,Anemia,[3]; [19],5 (17.2) n (%)
same,Anorexia,[3]; [19],10 (34.5) n (%)
same,Constipation,[3]; [19],3 (10.3) n (%)
same,Decreased platelet count,[3]; [19],6 (20.7) n (%)
same,Diarrhea,[3]; [19],8 (27.6) n (%)
same,Dyspnea,[3]; [19],7 (24.1) n (%)
same,Fatigue,[3]; [19],14 (48.3) n (%)
same,Headache,[3]; [19],5 (17.2) n (%)
same,Nausea,[3]; [19],11 (37.9) n (%)
same,Pyrexia,[3]; [19],3 (10.3) n (%)
same,Thrombocytopenia,[3]; [19],15 (51.7) n (%)
same,Total adverse events,[3]; [19],26 (89.7) n (%)
same,Vomiting,[3]; [19],9 (31.0) n (%)
same,"Thrombocytopenia, frequency",[3]; any grade,51.7%
same,"Thrombocytopenia, frequency",[3]; grade 3/4,37.9%
same,patients with QTc-interval abnormalities,[3]; QTcF >500 ms and/or increase >60 ms from baseline,two
same,"progressive disease, share of patients","[4]; N = 36, RECIST",58.3%
same,"partial response, share of patients","[4]; N = 36, best response, RECIST",2.8%
same,"stable disease, share of patients","[4]; N = 36, best response, RECIST",16.7%
same,mean AUC0–∞,[5],183 ng·h/mL
same,Biopharmaceutics Classification System class,[6],Class I like
same,accumulation,[7],did not accumulate
O=C(CCCCCCC(=O)Nc1ccccc1)NO [vorinostat],delay in Tmax by food,[8],2.5 h
